Assay results reported in ChEMBL document CHEMBL1201862, “PubChem BioAssay data set” (2004).
Activity calls are given as the source filed them.

What was measured:
Fatty acid synthase [1] = biological target: T1, Fatty acid synthase (Homo sapiens, UniProt P49327); assay: FAS thioesterase domain inhibitors, dose response, biochemical, kinetic fluorescence intensity (AID 624326); format: functional;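 also: rate of fluorescence rise from hydrolysis of a fluorogenic O-methyl fluorescein ester substrate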
T1 sequence (P49327 whole entry, the tested form may be a part): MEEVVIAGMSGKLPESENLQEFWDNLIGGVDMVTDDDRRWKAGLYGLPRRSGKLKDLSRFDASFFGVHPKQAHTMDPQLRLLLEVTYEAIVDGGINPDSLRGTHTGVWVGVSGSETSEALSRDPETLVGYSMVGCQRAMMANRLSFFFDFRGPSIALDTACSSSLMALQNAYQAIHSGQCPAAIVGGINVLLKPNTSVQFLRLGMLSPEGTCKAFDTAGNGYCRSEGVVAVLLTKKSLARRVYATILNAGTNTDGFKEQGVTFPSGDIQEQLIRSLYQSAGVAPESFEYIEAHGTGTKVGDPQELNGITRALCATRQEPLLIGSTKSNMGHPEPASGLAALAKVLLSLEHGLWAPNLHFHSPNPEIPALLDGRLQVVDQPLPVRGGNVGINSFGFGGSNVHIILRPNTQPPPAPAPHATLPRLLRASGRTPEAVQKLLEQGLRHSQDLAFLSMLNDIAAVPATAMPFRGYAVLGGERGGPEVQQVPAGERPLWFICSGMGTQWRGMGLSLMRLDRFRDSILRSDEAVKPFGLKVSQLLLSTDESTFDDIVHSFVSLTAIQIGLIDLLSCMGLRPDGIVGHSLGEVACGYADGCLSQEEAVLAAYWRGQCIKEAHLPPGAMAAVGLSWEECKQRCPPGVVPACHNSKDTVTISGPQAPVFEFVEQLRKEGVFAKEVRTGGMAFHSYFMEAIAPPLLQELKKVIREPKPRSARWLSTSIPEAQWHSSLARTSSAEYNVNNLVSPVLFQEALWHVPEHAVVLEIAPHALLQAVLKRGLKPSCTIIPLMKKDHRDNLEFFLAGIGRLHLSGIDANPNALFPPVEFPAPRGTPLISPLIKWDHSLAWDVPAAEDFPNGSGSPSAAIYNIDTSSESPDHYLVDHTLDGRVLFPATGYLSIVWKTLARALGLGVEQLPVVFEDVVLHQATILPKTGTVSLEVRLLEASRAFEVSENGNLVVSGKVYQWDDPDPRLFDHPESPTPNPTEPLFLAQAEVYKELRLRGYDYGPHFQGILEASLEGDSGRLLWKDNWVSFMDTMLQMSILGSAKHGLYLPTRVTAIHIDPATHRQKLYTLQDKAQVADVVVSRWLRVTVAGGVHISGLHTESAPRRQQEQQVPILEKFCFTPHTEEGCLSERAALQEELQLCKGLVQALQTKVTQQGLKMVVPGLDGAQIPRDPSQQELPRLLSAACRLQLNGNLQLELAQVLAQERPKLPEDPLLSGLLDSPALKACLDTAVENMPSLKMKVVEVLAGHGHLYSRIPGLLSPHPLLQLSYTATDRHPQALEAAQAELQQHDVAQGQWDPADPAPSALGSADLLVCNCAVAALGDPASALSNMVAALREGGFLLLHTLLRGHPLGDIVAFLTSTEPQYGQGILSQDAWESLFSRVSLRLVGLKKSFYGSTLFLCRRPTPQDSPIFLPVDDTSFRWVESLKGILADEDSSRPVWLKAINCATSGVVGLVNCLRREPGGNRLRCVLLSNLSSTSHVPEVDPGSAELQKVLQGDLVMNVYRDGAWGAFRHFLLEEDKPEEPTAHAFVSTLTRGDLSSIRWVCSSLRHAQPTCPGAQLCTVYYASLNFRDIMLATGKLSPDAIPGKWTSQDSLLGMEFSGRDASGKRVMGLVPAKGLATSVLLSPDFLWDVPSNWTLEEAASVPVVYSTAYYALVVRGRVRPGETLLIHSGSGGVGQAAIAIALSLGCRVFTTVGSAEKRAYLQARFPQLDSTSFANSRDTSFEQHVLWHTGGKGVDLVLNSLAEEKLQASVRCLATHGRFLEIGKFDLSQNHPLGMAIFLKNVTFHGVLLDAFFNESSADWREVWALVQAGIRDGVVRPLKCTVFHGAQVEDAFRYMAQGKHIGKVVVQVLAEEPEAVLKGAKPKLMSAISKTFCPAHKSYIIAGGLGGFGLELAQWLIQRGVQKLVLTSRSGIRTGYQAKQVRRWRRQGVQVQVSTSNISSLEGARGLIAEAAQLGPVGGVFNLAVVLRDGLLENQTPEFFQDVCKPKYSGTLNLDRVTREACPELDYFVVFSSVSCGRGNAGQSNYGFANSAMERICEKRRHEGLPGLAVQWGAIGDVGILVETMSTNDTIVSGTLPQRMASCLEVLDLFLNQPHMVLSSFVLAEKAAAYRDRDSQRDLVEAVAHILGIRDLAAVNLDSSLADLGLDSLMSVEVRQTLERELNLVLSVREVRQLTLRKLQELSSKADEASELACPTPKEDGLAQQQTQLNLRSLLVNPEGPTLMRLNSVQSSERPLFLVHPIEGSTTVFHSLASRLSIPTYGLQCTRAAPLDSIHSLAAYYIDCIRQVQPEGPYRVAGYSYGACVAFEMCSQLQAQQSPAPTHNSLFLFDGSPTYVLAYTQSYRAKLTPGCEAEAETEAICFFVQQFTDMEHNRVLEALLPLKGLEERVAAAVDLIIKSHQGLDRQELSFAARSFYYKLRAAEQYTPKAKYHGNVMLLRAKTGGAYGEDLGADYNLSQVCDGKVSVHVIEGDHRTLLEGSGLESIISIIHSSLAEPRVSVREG

[2] = biological target: T2, Replicative DNA helicase DnaB (Mycobacterium tuberculosis, UniProt P9WMR3); assay: DnaB intein splicing inhibitors, dose response, biochemical, cell-free fluorescence (AID 449749); format: functional
T2 sequence (P9WMR3 whole entry): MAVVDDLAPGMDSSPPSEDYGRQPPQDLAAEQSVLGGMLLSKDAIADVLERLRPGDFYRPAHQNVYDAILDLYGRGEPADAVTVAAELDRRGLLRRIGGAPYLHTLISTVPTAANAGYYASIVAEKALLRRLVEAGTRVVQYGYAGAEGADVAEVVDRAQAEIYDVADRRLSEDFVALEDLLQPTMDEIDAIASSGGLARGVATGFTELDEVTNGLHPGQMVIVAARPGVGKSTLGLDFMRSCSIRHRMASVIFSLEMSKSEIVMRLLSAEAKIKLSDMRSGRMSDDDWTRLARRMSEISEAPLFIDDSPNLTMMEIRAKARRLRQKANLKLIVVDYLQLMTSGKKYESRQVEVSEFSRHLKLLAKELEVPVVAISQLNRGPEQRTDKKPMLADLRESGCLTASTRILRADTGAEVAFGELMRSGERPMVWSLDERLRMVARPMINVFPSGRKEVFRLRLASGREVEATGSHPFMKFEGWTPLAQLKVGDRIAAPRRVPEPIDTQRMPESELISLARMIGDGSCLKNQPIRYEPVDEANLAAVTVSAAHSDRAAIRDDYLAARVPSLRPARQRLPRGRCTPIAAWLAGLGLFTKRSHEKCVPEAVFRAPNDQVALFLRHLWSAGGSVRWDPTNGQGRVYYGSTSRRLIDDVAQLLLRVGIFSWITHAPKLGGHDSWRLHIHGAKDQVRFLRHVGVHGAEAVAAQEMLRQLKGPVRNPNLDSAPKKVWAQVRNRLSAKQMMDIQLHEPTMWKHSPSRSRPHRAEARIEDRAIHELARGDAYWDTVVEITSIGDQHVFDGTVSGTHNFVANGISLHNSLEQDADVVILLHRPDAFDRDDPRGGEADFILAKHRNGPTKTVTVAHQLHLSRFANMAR

Fatty acid synthase [3] = biological target: T1, Fatty acid synthase; assay: FAS thioesterase domain inhibitors, dose response, biochemical, endpoint fluorescence intensity, uHTS hits (AID 624327); format: functional;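 also: fluorescence from hydrolysis of an O-methyl fluorescein acyl ester substrate by the enzyme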
Protein RecA = biological target: T3, Protein RecA (Mycobacterium tuberculosis, UniProt P9WHJ3); assay: Fluorescence Cell-Free Homogeneous Dose Retest to Identify Inhibitors of RecA-Intein Splicing Activity. [Related pubchem assays (depositor defined):AID2097, AID2223, AID489010, AID492950]; format: functional
T3 sequence (P9WHJ3 whole entry): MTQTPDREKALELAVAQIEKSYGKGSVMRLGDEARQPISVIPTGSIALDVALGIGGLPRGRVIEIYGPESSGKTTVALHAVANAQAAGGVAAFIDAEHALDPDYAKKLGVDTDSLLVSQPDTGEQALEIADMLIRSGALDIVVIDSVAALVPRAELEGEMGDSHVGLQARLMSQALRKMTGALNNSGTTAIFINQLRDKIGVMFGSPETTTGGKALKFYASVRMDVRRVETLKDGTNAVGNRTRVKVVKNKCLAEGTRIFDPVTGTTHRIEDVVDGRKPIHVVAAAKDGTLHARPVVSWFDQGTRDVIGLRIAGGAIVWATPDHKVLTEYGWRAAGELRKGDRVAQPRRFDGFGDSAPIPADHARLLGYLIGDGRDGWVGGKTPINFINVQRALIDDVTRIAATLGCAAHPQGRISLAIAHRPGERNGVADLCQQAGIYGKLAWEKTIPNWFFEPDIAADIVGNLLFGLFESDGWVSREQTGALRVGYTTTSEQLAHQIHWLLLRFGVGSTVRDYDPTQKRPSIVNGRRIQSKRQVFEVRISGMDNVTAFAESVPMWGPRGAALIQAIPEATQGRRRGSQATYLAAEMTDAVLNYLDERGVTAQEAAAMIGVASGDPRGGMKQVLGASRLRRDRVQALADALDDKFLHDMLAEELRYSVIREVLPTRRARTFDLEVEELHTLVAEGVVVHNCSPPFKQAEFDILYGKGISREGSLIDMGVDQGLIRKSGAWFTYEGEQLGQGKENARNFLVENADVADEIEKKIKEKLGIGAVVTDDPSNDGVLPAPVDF

[4] = Luminescence Cell-Based Dose Response HTS to Identify Activators of Luciferase Translation or Activity in H4 […] Cells. [Related pubchem assays: 1829 (Project Summary), 1814 (Primary HTS)]; format: functional
H4 = assay: Luminescence Cell-Based Dose Response HTS to Identify Activators of 5'UTR Stem-Loop Driven Prion Protein mRNA Translation in H4 Neuroglioblastoma Cells. [Related pubchem assays: 1829 (Project Summary), 1814 (Primary HTS)]; format: functional; conditions: Homo sapiens
H9c2 = assay: cells; format: functional, cell-based; conditions: Rattus norvegicus, H9c2, Myocardium;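 also: confirmatory concentration-response retest of ultra-high-throughput screening hits for modulation of myocardial damage; cell death induced by hydrogen peroxide oxidative stress; compound pretreatment for 60 min then peroxide exposure for 2 h; potency is for protecting the cells against peroxide damage rather than for killing them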
[5] = Luminescence Cell-Based Dose Confirmation HTS to Identify Activators of 5'UTR Stem-Loop Driven Alpha-Synuclein mRNA Translation in H4 Neuroglioblastoma Cells. [Related pubchem assays: 1829 (Project Summary), 1814 (Primary HTS)]; format: functional
Streptokinase A = biological target: T4, Streptokinase A (Streptococcus pyogenes serotype M1, UniProt P10520); assay: S. pyogenes streptokinase expression inhibitors, potency, dose response, plasminogen activation absorbance, OD405 (AID 1914); format: functional, Streptococcus pyogenes M1 GAS;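 also: secreted streptokinase activity via plasminogen activation per viability signal from cell pellet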
T4 sequence (P10520 whole entry): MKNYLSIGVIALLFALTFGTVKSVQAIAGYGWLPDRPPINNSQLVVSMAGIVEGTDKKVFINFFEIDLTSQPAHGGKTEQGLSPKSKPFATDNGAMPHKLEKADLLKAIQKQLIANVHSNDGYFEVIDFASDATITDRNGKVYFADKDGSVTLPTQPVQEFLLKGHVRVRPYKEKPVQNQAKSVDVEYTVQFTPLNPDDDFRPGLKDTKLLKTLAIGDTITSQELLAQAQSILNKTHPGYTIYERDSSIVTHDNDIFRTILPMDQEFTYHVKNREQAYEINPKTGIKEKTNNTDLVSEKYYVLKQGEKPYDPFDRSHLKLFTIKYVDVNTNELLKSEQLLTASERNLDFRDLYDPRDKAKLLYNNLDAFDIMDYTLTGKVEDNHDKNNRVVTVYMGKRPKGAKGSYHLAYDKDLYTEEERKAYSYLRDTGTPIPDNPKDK

Streptococcus = assay: Group A Streptococcus viability loss, dose response, counter-screen for streptokinase expression inhibitor project, luminescence, BacTiterGlo (AID 1915); format: functional, organism-based;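 also: potency for reduction of bacterial viability or growth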
[6] = tested on: Streptococcus sp. 'group A'; assay: growth inhibition of control SK(-) GAS strain, dose response, counter-screen for streptokinase expression inhibitor project, luminescence, kanamycin, BacTiterGlo, confirmation (AID 1900); format: functional, organism-based
[7] = biological target: T5, Polyadenylate-binding protein 1 (Homo sapiens, UniProt P11940); assay: PABP1 MLLE–PAM2 interaction inhibitors, dose response, miRNA deadenylation inhibitor project, biochemical, fluorescence polarization, Cy5-PAM2 peptide, secondary (AID 602260); format: functional; conditions: read-out: IC50_Mean
T5 sequence (P11940 whole entry): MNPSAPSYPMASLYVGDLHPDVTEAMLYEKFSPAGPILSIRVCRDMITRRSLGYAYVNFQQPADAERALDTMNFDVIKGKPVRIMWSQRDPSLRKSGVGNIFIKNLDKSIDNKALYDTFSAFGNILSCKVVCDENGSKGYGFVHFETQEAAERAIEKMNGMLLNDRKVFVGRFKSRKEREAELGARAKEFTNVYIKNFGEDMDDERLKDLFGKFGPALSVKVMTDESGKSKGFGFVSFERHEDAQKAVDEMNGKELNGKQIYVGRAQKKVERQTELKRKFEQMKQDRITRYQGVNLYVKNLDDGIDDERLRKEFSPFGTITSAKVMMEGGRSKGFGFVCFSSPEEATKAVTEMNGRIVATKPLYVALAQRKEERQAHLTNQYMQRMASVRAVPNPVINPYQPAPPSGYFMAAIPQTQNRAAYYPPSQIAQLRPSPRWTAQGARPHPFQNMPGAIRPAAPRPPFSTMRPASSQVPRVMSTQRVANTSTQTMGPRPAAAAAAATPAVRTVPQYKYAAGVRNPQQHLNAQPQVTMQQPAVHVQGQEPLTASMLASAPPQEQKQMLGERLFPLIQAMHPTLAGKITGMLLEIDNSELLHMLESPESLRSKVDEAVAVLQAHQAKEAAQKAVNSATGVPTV

[8] = biological target: T5, Polyadenylate-binding protein 1; assay: PABP1 MLLE–PAM2 binding inhibitor potency, dose response, biochemical, fluorescence polarization, FITC-PAM2 peptide (AID 602259); format: functional; conditions: read-out: IC50_Mean
[9] = biological target: Luciferin 4-monooxygenase (Photinus pyralis, UniProt P08659); assay: firefly luciferase enzyme inhibitors, dose response, biochemical, luminescence (AID 1891)
Chain of Luciferin 4-monooxygenase (P08659 whole entry): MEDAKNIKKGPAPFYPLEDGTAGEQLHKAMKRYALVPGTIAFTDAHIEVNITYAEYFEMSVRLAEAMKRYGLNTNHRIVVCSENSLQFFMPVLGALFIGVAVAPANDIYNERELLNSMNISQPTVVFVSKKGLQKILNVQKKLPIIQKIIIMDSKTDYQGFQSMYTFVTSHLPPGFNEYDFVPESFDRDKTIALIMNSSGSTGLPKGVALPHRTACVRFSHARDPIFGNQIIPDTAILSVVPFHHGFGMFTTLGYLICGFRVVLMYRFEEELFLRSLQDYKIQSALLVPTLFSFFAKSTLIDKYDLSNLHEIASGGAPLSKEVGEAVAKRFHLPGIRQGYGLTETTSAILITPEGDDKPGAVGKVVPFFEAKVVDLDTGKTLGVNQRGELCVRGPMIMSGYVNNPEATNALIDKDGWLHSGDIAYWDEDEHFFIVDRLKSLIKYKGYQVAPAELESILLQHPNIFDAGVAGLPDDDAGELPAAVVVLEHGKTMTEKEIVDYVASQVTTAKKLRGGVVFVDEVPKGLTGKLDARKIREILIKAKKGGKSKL

[10] = Luminescence Cell-Based Dose Confirmation HTS to Identify Inhibitors of Platelet Dense Granule Release. [Related pubchem assays: 1663 (Primary HTS), 1678 (Summary of Project)]; format: functional
Protein skinhead-1 = biological target: T6, Protein skinhead-1 (Caenorhabditis elegans, UniProt P34707); format: functional
T6 sequence (P34707 whole entry): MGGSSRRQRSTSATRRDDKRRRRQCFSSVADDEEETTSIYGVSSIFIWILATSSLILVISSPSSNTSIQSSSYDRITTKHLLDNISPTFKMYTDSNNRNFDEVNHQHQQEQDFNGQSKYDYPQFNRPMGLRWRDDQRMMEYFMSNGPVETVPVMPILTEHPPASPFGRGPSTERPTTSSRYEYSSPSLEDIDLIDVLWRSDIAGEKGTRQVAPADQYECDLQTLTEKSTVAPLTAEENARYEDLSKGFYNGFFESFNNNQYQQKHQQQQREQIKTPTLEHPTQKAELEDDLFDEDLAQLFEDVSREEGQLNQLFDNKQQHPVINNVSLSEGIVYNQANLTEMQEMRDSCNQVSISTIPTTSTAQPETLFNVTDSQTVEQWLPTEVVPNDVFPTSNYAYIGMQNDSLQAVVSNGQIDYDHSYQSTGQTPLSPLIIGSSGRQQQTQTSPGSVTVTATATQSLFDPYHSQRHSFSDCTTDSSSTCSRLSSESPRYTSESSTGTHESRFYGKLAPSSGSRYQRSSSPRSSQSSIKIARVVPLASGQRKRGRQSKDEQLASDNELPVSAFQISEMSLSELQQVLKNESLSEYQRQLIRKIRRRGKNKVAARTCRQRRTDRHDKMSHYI

[11] = inhibitors of HIV Env-driven cell fusion, dose response, cherry-pick (AID 652057); format: functional, cell-based

SMILES	IC50 (Fatty acid synthase [1])	IC50 (Fatty acid synthase [3])	IC50 [7]	IC50 [8]	other results
N#Cc1cc(-c2ccccc2)nc(Oc2ccccc2)n1	12.9 µM (active)	12.2 µM (active)			AC50 [2]: 6.79 µM (active); EC50 (Protein RecA): 17.7 µM (active)
CCC(=O)Oc1cccc(C(=O)Nc2ccc(-c3nnc(-c4ccco4)o3)cc2)c1					EC50 [4]: > 120 µM (not active); EC50 (H4): 6.33 µM (active); IC50 (H9c2): 22.7 µM (active); EC50 [5]: 3.89 µM (active)
O=[N+]([O-])c1ccc(NCc2ccc(Cl)cc2)c2ccncc12	3.75 µM (active)	3.17 µM (active)			EC50 (Streptokinase A): 15.1 µM (active); EC50 (Streptococcus): > 150 µM (not active); EC50 [6]: 32.3 µM (active)
COc1cc2ncc(S(=O)(=O)c3ccccc3)c(N3CCC4(CC3)OCCO4)c2cc1OC	1.59 µM (active)	2.55 µM (active)			
CC(NC(=O)COC(=O)c1cc([N+](=O)[O-])ccc1N1CCOCC1)c1ccccc1 (stereo not given)	2.93 µM (active)	4.64 µM (active)			
CN(C)S(=O)(=O)c1cccc(NC(=O)c2cc([N+](=O)[O-])ccc2N2CCCCC2)c1	12.2 µM (active)	13.1 µM (active)			
COc1ccc(N2C(=O)NC3CC2(C)Oc2ccc(Br)cc23)cc1OC (stereo not given)	5.33 µM (active)	4.93 µM (active)			
O=C(CN1C(=O)S/C(=C/c2ccncc2)C1=O)N1CCOCC1			> 66 µM (inactive)	> 66 µM (inactive)	
O=C(NCCc1cccc(Cl)c1)c1ccc(Cl)c([N+](=O)[O-])c1	9.95 µM (active)	9.28 µM (active)			
O=[N+]([O-])c1ccc(CSc2ccc(S(=O)(=O)N3CCOCC3)cn2)cc1	4.09 µM (active)	13.4 µM (active)	> 66 µM (inactive)	> 66 µM (inactive)	
Cc1onc(-c2c(F)cccc2Cl)c1C(=O)NC(=S)NC1CCS(=O)(=O)C1 (stereo not given)			> 66 µM (inactive)	> 66 µM (inactive)	
COc1ccc(C2(CNC(=O)c3cccc([N+](=O)[O-])c3)CCCCC2)cc1OC	10.2 µM (active)	14.9 µM (active)			
COc1ccc(C(=O)NCc2ccc3c(c2)cc(C)n3C)cc1			> 66 µM (inactive)	> 66 µM (inactive)	EC50 [9]: > 112 µM (not active); EC50 [10]: > 112 µM (not active); IC50 (Protein skinhead-1): > 100 µM (inactive)
COC(=O)CSc1[nH]c2ccccc2c1[N+](=O)[O-]			> 66 µM (inactive)	> 66 µM (inactive)	
COc1nccnc1NS(=O)(=O)c1ccc(NC(=S)NC(=O)/C=C/c2ccccc2)cc1			> 66 µM (inactive)	> 66 µM (inactive)	
c1cc2c3c(cccc3c1)NC1(CCCC1)N2			> 66 µM (inactive)	> 66 µM (inactive)	
CSc1nsc(NN)n1			> 66 µM (inactive)	> 66 µM (inactive)	
C[C@H]1CN([C@@H](C)CO)C(=O)c2cccc(NS(=O)(=O)c3ccc(Cl)cc3)c2O[C@@H]1CN(C)Cc1ccc(C(F)(F)F)cc1					AC50 [11]: 29 µM (active)
COc1ccc2c3c(n(C)c2c1)[C@@H](CO)N(C(=O)Nc1ccc(F)cc1)CC31CCN(Cc2cccc(F)c2)CC1					AC50 [11]: < 0.26 µM (active)
Cc1cc(Cl)ccc1NC(=O)CCC(=O)N/N=C/c1cc([N+](=O)[O-])ccc1O	8.57 µM (active)	12.8 µM (active)			
